The target in the test is T1, hP2Y2R (Homo sapiens, UniProt P41231).
T1 construct: The 1321N1 cells expressing wild-type P2Y2R (P2Y2R-1321N1) were gifted by Dr. Elizabeth Rosethorne; expressed in transfected cells; host or cells: 1321N1 astrocytoma cells (P2Y2R-1321N1), gifted
The test can be described thus: Calcium-mobilization assay in P2Y2-1321N1 cells (antagonism of UTPγS). The settings on record: for Kb / hP2Y2 pKb: Gaddum equation, shift of UTPγS concentration–response curve by a single antagonist concentration, mean ± SEM; for Kb: read-out: hP2Y2 pKb (converted); for hP2Y2R antagonist activity in words: calcium-mobilization assay. The format is cell-based.

Results on 9 molecules are retold here after PMC6026847, “Synthesis and Evaluation of the First Fluorescent Antagonists of the Human P2Y2 Receptor Based on AR-C118925” (Journal of Medicinal Chemistry, 2018).

Read-outs that look alike come from different tables or passages of the source.

T1 sequence (P41231 whole entry): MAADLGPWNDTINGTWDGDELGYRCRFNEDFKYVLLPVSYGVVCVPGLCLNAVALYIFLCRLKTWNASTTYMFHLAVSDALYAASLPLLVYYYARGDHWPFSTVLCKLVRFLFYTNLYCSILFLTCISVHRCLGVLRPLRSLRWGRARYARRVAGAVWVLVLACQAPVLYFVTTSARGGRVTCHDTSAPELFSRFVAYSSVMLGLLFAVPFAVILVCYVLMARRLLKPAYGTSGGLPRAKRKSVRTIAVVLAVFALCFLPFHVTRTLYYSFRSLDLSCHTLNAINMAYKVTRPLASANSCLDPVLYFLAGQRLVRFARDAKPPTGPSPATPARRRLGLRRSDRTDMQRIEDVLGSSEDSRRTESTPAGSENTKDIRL

In the case of `COCCNc1nc2c(s1)C=Cc1cc(Cl)ccc1C2c1cn(C)c(=O)[nH]c1=S` (racemic) [Example 14, 5-(7-Chloro-2-((2-methoxyethyl)amino)-4H-benzo[5,6]cyclohepta[1,2-d]thiazol-4-yl)-1-methyl-4-thioxo-3,4-dihydropyrimidin-2(1H)-one], the Kb (Table 2) was 251 nM.

`Cc1ccc2c(c1)C=Cc1cc(C)ccc1C2c1cn(Cc2nc(C(=O)Nc3nnn[nH]3)cs2)c(=O)[nH]c1=S` [Example 3, 2-((5-(2,8-Dimethyl-5H-dibenzo[a,d][7]annulen-5-yl)-2-oxo-4-thioxo-3,4-dihydropyrimidin-1(2H)-yl)methyl)-N-(1H-tetrazol-5-yl)thiazole-4-carboxamide]: the Kb (Table 1) was 77.6 nM. Regarding `Cc1ccc2c(c1)C=Cc1cc(C)ccc1C2c1cn(C)c(=O)[nH]c1=S` [Example 4, 5-(2,8-Dimethyl-5H-dibenzo[a,d][7]annulen-5-yl)-1-methyl-4-thioxo-3,4-dihydropyrimidin-2(1H)-one], the “hP2Y2R antagonist activity in words” value was “inactive”. Besides, under “Table 1”, the “hP2Y2 pKb” value was “IA ^b (IA = inactive; i.e., less than a 50% inhibition of the response to 0.1 μM UTPγS in the presence of a 10 μM concentration of the compound)”.

As for `Cc1nc2c(s1)C=Cc1cc(Cl)ccc1C2c1cn(Cc2nc(C(=O)Nc3nnn[nH]3)cs2)c(=O)[nH]c1=S` (stereo not shown) [Example 5, 2-((5-(7-Chloro-2-methyl-4H-benzo[5,6]cyclohepta[1,2-d]thiazol-4-yl)-2-oxo-4-thioxo-3,4-dihydropyrimidin-1(2H)-yl)methyl)-N-(1H-tetrazol-5-yl)thiazole-4-carboxamide], the Kb (Table 1) was 331 nM. The same measure, in the same setting: to `Cc1nc2c(s1)C=Cc1cc(Cl)ccc1C2c1cn(C)c(=O)[nH]c1=S` (stereo not shown) [Example 6, 5-(7-Chloro-2-methyl-4H-benzo[5,6]cyclohepta[1,2-d]thiazol-4-yl)-1-methyl-4-thioxo-3,4-dihydropyrimidin-2(1H)-one] belongs 1020 nM. With `Cn1cc(C2c3ccc(Cl)cc3C=Cc3sc(N)nc32)c(=S)[nH]c1=O` (stereo not shown) [Example 7, 5-(2-Amino-7-chloro-4H-benzo[5,6]cyclohepta[1,2-d]thiazol-4-yl)-1-methyl-4-thioxo-3,4-dihydropyrimidin-2(1H)-one], the Kb (Table 2) is 275 nM. For the molecule `Cn1cc(C2c3ccc(Cl)cc3C=Cc3sc(Nc4ccccc4)nc32)c(=S)[nH]c1=O` (stereo not shown) [Example 8, 5-(7-Chloro-2-(phenylamino)-4H-benzo[5,6]cyclohepta[1,2-d]thiazol-4-yl)-1-methyl-4-thioxo-3,4-dihydropyrimidin-2(1H)-one], the “hP2Y2R antagonist activity in words” value is “inactive”. Moreover, for the setting “Table 2”, the “hP2Y2 pKb” value was “IA ^b (3) (IA = inactive; i.e., less than a 50% inhibition of the response to 0.1 μM UTPγS in the presence of a 10 μM concentration of the compound (n = 3))”. As for `Cn1cc(C2c3ccc(Cl)cc3C=Cc3sc(NCc4ccccc4)nc32)c(=S)[nH]c1=O` (stereo not shown) [Example 9, 5-(2-(Benzylamino)-7-chloro-4H-benzo[5,6]cyclohepta[1,2-d]thiazol-4-yl)-1-methyl-4-thioxo-3,4-dihydropyrimidin-2(1H)-one], the “hP2Y2R antagonist activity in words” value is “inactive”. Also, the “hP2Y2 pKb” value (Table 2) is “IA (3) (IA = inactive; i.e., less than a 50% inhibition of the response to 0.1 μM UTPγS in the presence of a 10 μM concentration of the compound (n = 3))”.

For the molecule `Cn1cc(C2c3ccc(Cl)cc3C=Cc3sc(NCCc4ccccc4)nc32)c(=S)[nH]c1=O` (stereo not shown) [Example 10, 5-(7-Chloro-2-(phenethylamino)-4H-benzo[5,6]cyclohepta[1,2-d]thiazol-4-yl)-1-methyl-4-thioxo-3,4-dihydropyrimidin-2(1H)-one], the “hP2Y2R antagonist activity in words” value was “inactive”. The “hP2Y2 pKb” value (Table 2) is “IA (3) (IA = inactive; i.e., less than a 50% inhibition of the response to 0.1 μM UTPγS in the presence of a 10 μM concentration of the compound (n = 3))”.
